Key:
Assay in all cases: relative viability (nuclei count vs DMSO), 5 days (fraction); higher = more cells survive
Selumetinib + Crizotinib = compound: Cn1cnc2c(F)c(Nc3ccc(Br)cc3Cl)c(C(=O)NOCCO)cc21 [Selumetinib] + C[C@@H](Oc1cc(-c2cnn(C3CCNCC3)c2)cnc1N)c1c(Cl)ccc(F)c1Cl [Crizotinib] (partner 1 µM)
In short: (§1)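 Dosing by pin tool came one day after lung cancer cell lines were seeded in 1536-well plates, using either one drug or a fixed anchor-drug dose plus five library-drug doses (not always all listed) in √10 steps. After 5 days, nuclei were counted on 4× images. Relative viability is treated-well nuclei count divided by vehicle-well nuclei count, and values are medians of duplicate plates.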

Venetoclax + Linsitinib = compound: CC1(C)CCC(CN2CCN(c3ccc(C(=O)NS(=O)(=O)c4ccc(NCC5CCOCC5)c([N+](=O)[O-])c4)c(Oc4cnc5[nH]ccc5c4)c3)CC2)=C(c2ccc(Cl)cc2)C1 [Venetoclax] + C[C@]1(O)C[C@@H](c2nc(-c3ccc4ccc(-c5ccccc5)nc4c3)c3c(N)nccn32)C1 [Linsitinib] (partner 1 µM)
In short: as §1

Selumetinib + Pemetrexed = compound: Cn1cnc2c(F)c(Nc3ccc(Br)cc3Cl)c(C(=O)NOCCO)cc21 [Selumetinib] + Nc1nc2[nH]cc(CCc3ccc(C(=O)N[C@@H](CCC(=O)O)C(=O)O)cc3)c2c(=O)[nH]1 [Pemetrexed] (partner 0.2 µM)
In short: as §1

Selumetinib + Olaparib = compound: Cn1cnc2c(F)c(Nc3ccc(Br)cc3Cl)c(C(=O)NOCCO)cc21 [Selumetinib] + O=C(c1cc(Cc2n[nH]c(=O)c3ccccc23)ccc1F)N1CCN(C(=O)C2CC2)CC1 [Olaparib] (partner 8 µM)
In short: as §1

| Cell Line | relative viability (Selumetinib + Crizotinib; first compound 0.02 µM) | relative viability (Selumetinib + Crizotinib; first compound 0.06325 µM) | relative viability (Selumetinib + Crizotinib; first compound 0.2 µM) | relative viability (Selumetinib + Crizotinib; first compound 0.6325 µM) | relative viability (Venetoclax + Linsitinib; first compound 0.01 µM) | relative viability (Venetoclax + Linsitinib; first compound 0.03162 µM) | relative viability (Venetoclax + Linsitinib; first compound 0.1 µM) | relative viability (Venetoclax + Linsitinib; first compound 0.3162 µM) | relative viability (Venetoclax + Linsitinib; first compound 1 µM) | relative viability (Selumetinib + Pemetrexed; first compound 0.02 µM) | relative viability (Selumetinib + Pemetrexed; first compound 0.06325 µM) | relative viability (Selumetinib + Pemetrexed; first compound 0.2 µM) | relative viability (Selumetinib + Pemetrexed; first compound 0.6325 µM) | relative viability (Selumetinib + Olaparib; first compound 0.02 µM) | relative viability (Selumetinib + Olaparib; first compound 0.06325 µM) | relative viability (Selumetinib + Olaparib; first compound 0.2 µM) | relative viability (Selumetinib + Olaparib; first compound 0.6325 µM) |
| --- | --- | --- | --- | --- | --- | --- | --- | --- | --- | --- | --- | --- | --- | --- | --- | --- | --- |
| SK-MES-1 | 1 | 0.905 | 0.974 | 0.741 | 0.995 | 1.09 | 1.07 | 1.06 | 0.963 | 0.875 | 0.746 | 0.737 | 0.461 | 0.728 | 0.779 | 0.695 | 0.599 |
| HOP-62 | 0.841 | 0.877 | 0.909 | 0.515 | 1.04 | 0.968 | 1.15 | 0.938 | 0.948 | 0.31 | 0.382 | 0.348 | 0.321 | 0.474 | 0.397 | 0.421 | 0.353 |
| LK-2 | 0.239 | 0.234 | 0.229 | 0.262 | 0.727 | 0.621 | 0.516 | 0.548 | 0.551 | 0.282 | 0.349 | 0.352 | 0.375 | 0.811 | 0.842 | 0.818 | 0.759 |
| HCC-44 | 0.883 | 0.753 | 0.876 | 0.876 | 0.613 | 0.728 | 0.67 | 0.664 | 0.609 | 0.635 | 0.748 | 0.684 | 0.75 | 0.988 | 0.997 | 0.983 | 1.01 |
| BEN | 0.773 | 0.873 | 0.834 | 0.776 | 0.91 | 0.919 | 0.769 | 0.842 | 0.997 | 0.806 | 0.765 | 0.697 | 0.888 | 1.13 | 1.08 | 1.14 | 0.988 |
| NCI-H2405 | 0.774 | 0.774 | 0.716 | 0.549 | 0.931 | 0.955 |  | 0.989 | 0.9 | 0.999 | 0.813 | 0.75 | 0.736 | 0.85 | 0.762 | 0.844 | 0.581 |
| 201T | 1.01 | 0.99 | 0.93 | 0.902 | 0.986 | 1.01 | 1.03 | 1.03 | 1.01 | 0.358 | 0.328 | 0.323 | 0.308 | 0.781 | 0.791 | 0.79 | 0.79 |
| NCI-H596 | 0.966 | 0.875 | 0.845 | 0.599 | 1.03 | 1.09 | 1.1 | 1.13 | 1.11 | 0.485 | 0.576 | 0.426 | 0.494 | 0.596 | 0.663 | 0.572 | 0.599 |
